Data published in patent EP0414903A1, “NEW THIOPROLINE DERIVATIVE” (priority 1988, dated 1990).
Non-standard residues stand in square brackets, D forms with d. Residues, ends and D or L forms follow the SMILES beside them. *: point of attachment. Thz = O=C(O)[C@@H]1CSCN1; Cbz = O=C(OCc1ccccc1)*

Tests used:
bovine brain PEP = target: T1, bovine brain PEP (Bos taurus, UniProt Q9XTA2); assay: Inhibitory activity against proline endopeptidase (PEP), substrate Z-Gly-Pro-β-NA; format: biochemical; settings: pH 7.0, 37°C
T1 construct: from tissue; host or cells: bovine brain
T1 sequence (Q9XTA2 1-710): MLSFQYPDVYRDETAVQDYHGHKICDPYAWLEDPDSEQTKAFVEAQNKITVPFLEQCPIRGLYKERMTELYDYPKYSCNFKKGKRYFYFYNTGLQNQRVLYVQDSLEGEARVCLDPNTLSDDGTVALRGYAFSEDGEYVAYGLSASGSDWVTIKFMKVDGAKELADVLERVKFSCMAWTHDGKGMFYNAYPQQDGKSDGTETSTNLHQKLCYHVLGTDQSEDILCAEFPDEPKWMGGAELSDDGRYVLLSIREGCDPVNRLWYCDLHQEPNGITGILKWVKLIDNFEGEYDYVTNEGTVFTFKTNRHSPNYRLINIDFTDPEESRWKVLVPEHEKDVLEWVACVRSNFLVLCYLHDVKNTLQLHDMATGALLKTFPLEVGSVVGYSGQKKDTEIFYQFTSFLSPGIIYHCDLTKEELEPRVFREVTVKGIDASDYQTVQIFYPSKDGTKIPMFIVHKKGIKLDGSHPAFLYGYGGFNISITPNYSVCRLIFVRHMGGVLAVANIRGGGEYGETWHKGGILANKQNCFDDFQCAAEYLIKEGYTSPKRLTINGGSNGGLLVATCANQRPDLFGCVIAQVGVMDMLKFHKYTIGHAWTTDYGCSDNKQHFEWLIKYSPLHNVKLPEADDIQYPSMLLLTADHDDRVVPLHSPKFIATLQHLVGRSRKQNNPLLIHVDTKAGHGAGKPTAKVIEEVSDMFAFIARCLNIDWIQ
Experimental: The thioproline derivatives of the general formula (I) shown above as test compound were assayed for inhibitory activity against bovine brain PEP by the following test procedure using as substrate N-benzyloxycarbonyl-glycyl-proline-β-naphthylamide (Z-Gly-Pro-β-NA).
100 µl of PEP (about 0.14 U/ml) and 100µl of one of test compound solutions adjusted to different concentrations (0, 10⁻⁹ - 10⁻⁴M) were added to 0.7 ml of 20 mM Tris-HCl buffer (pH = 7.0) containing 10 mM EDTA and 10 mM 2-mercaptoethanol, and the mixture was preincubated at 37°C for 5 minutes. […] The reaction was […] using 25% trichloroacetic acid, and the reaction mixture was centrifuged at 3,000 r.p.m. for 10 minutes. To 0.5 ml of the supernatent was added 0.5 ml of 0.1% nitrous acid, and after 3 minutes 0.05% solution of N-(l-naphthyl)etnylenediamine dihydrochloride in ethanol was added thereto. The mixture was allowed to stand at 37°C for 25 minutes and then the absorbance at 570 nm was measured.
Enzyme Activity Unit = ΔOD x 0.42 x Dilution ratio (µmol/min/ml)

[1] = tested on: scopolamine-induced amnesia; assay: Step-down passive avoidance test (anti-amnestic activity, scopolamine-induced amnesia); format: in vivo, rats; settings: scopolamine 0.5 mg/kg i.p., relative to scopolamine-treated group, retention trial 24 hours after acquisition
Description: A step-down passive avoidance test on rats was used as the method of assay for anti-amnestic activity to estimate the preventive effect of prolylendopeptidase inhibitors on scopolamine-induced amnesia. This method of assay involved application of electric shocks to animals upon their stepping down on a grid floor to see whether they have learned that such shocks can be avoided by staying on a platform. A passive avoidance test chamber used in this experiment was comprised of an electrifiable grid floor (20 cm in length and 22 cm in width) and a platform (20 cm in length, 15 cm in width and 5 cm in height) placed at the right back corner thereof.
5-Weeks-old male rats of Wister strain weighing 100-150 g (purchased from Japan Clea Laboratory) were used in the test.
Each test compound used in the doses indicated in Tables 1 - 4 was dissolved or suspended in 4% gum arabic-containing distilled water (1.0 ml) and administered p.o. one hour before the commencement of acquisition trial. In addition, scopolamine hydrobromide dissolved in saline (0.5 ml) was intraperitoneally administered in a dose of 0.5 mg/kg 30 minutes before the acquisition trial to prepare experimental animal models of amnesia.
In the acquisition trial, the rat was placed on the platform in the test chamber and, when the animal stepped down on the grid floor, the electric current of 5.0 mA was immediately sent to the grid floor continuously until the animal went up on the platform. If the rat having gone up on the platform stayed there for more than 30 seconds, the animal was regarded to have learned the situation and taken out of the test chamber. A total time of measurement in the acquisition trial was limited to 300 seconds as maximum, and the time elapsing until the rat learned the situation was measured. In order to avoid any significant difference in the rats, those which took more than 300 seconds for the learning were excluded from the experiment.
The retention trial was carried out 24 hours after the acquisition trial. In this trial, the rat was placed again on the platform in the test chamber, the time elapsing until the animal stepped down onto the grid floor (the step-down latency) was measured.
In each of these tables they are indicated as relative step-down latency, shown by each test compound-treated group in the retention trial, to step-down latency for scopolamine-treated group (i.e. test compound-treated group's step-down latency/scopolamine-treated group's step-down latency).

IC50 (bovine brain PEP) [µM] | Compound | Relative step-down latency in retention trial (mean±S.E.) ([1]; Table 2, dose 0.008 mg/kg p.o.) | Relative step-down latency in retention trial (mean±S.E.) ([1]; Table 2, dose 0.04 mg/kg p.o.) | Relative step-down latency in retention trial (mean±S.E.) ([1]; Table 2, dose 0.2 mg/kg p.o.) | Relative step-down latency in retention trial (mean±S.E.) ([1]; Table 2, dose 1 mg/kg p.o.) | Relative step-down latency in retention trial (mean±S.E.) ([1]; Table 2, dose 5 mg/kg p.o.) | Relative step-down latency in retention trial (mean±S.E.) ([1]; Table 2, dose 25 mg/kg p.o.) | Relative step-down latency in retention trial (mean±S.E.) ([1]; Table 3, dose 12.5 mg/kg p.o.) | Relative step-down latency in retention trial (mean±S.E.) ([1]; Table 3, dose 25 mg/kg p.o.) | Relative step-down latency in retention trial (mean±S.E.) ([1]; Table 3, dose 50 mg/kg p.o.) | Relative step-down latency in retention trial (mean±S.E.) ([1]; Table 3, dose 100 mg/kg p.o.)
10 | COC(OC)[C@@H]1CSCN1C(=O)[C@@H]1CSCN1C(=O)OCc1ccccc1 [Example 1, Benzyloxycarbonyl-L-thioprolyl-L-thioprolinal dimethyl acetal] | 0.9±0.1 | 2.4±1.1 | 2.5±1.5 | 1.4±0.3 | 1.1±0.4 | 1.6±0.6 |  |  |  | 
 | O=C[C@@H]1CSCN1C(=O)[C@@H]1CSCN1C(=O)OCc1ccccc1 [ZTT, Benzyloxycarbonyl-L-thioprolyl-L-thioprolinal, reference compound] (Cbz-[Thz]-[Thz]-aldehyde) | 1.0±0.3 | 3.0±1.2 | 2.6±0.9 | 1.6±0.8 | 1.0±0.2 | 1.4±0.9 |  |  |  | 
 | COc1ccc(C(=O)N2CCCC2=O)cc1 [aniracetam, reference compound] |  |  |  |  |  |  | 1.1±0.4 | 1.6±0.6 | 2.3±0.6 | 0.7±0.3
250 | CCOC(OCC)[C@@H]1CSCN1C(=O)[C@@H]1CSCN1C(=O)OCc1ccccc1 [Example 2, Benzyloxycarbonyl-L-thioprolyl-L-thioprolinal diethyl acetal] | 1.5±0.6 | 2.7±1.4 | 1.7±0.9 | 2.3±1.2 | 1.5±0.6 | 1.3±0.7 |  |  |  | 
